# Laboratory results from ChEMBL document CHEMBL3132769, “Fragment growing to retain or alter the selectivity of anchored kinase hinge-binding fragments” (Medchemcomm, 2014).
# Key:
# [1] = molecular target: Ribosomal protein S6 kinase alpha-5 (Homo sapiens) (UniProt O75582); assay: Inhibition of human full length MSK1 expressed in baculovirus assessed as substrate phosphorylation using fluorescence-labelled peptides as substrate at 0.06 uM after 90 mins by microfluidic peptide phosphorylation assay
# [2] = species: Homo sapiens; assay: Inhibition of human P70S6K catalytic domain expressed in baculovirus assessed as substrate phosphorylation using fluorescence-labelled peptides as substrate at 0.06 uM after 90 mins by microfluidic peptide phosphorylation assay
# [3] = molecular target: Ribosomal protein S6 kinase alpha-2 (Homo sapiens) (UniProt Q15349); assay: Inhibition of human full length RSK3 expressed in baculovirus assessed as substrate phosphorylation using fluorescence-labelled peptides as substrate at 70 uM after 90 mins by microfluidic peptide phosphorylation assay
# [4] = molecular target: Insulin-like growth factor 1 receptor (Homo sapiens) (UniProt P08069); assay: Inhibition of human IGF1R catalytic domain expressed in baculovirus assessed as substrate phosphorylation using fluorescence-labelled peptides as substrate at 70 uM after 90 mins by microfluidic peptide phosphorylation assay
# [5] = molecular target: T1, Serine/threonine-protein kinase D1 (Homo sapiens) (UniProt Q15139); assay: Inhibition of human full length PKD1 expressed in baculovirus assessed as substrate phosphorylation using fluorescence-labelled peptides as substrate at 420 uM after 90 mins by microfluidic peptide phosphorylation assay
# T1 sequence (whole entry): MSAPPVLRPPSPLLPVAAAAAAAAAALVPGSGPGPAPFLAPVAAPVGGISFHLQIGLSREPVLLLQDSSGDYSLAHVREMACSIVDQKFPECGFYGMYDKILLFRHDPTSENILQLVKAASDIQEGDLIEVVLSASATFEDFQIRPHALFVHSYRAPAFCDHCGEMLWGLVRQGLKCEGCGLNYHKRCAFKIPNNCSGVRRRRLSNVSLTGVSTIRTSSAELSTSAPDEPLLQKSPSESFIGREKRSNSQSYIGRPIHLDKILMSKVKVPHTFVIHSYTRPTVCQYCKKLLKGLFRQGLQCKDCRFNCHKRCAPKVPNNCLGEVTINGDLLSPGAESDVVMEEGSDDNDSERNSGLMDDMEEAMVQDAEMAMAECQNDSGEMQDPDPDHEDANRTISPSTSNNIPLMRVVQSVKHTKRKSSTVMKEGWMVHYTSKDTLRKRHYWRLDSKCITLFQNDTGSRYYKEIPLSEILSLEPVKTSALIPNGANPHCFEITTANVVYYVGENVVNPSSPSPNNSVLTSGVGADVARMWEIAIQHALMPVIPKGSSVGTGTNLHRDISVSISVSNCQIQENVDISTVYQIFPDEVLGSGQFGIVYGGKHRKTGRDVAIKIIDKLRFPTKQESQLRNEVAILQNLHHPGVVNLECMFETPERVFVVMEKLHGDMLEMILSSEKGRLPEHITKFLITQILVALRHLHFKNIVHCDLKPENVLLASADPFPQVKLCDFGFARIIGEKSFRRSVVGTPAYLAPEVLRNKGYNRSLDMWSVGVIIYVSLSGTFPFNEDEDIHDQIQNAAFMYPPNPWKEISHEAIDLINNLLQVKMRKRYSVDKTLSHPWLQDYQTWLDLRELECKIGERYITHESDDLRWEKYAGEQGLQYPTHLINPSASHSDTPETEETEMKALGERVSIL
# [6] = molecular target: Fibroblast growth factor receptor 4 (Homo sapiens) (UniProt P22455); assay: Inhibition of human FGFR4 catalytic domain expressed in baculovirus assessed as substrate phosphorylation using fluorescence-labelled peptides as substrate at 9 uM after 90 mins by microfluidic peptide phosphorylation assay
# [7] = molecular target: T2, MAP kinase-activated protein kinase 5 (Homo sapiens) (UniProt Q8IW41); assay: Inhibition of human full length PRAK expressed in baculovirus assessed as substrate phosphorylation using fluorescence-labelled peptides as substrate at 9 uM after 90 mins by microfluidic peptide phosphorylation assay
# T2 sequence (whole entry): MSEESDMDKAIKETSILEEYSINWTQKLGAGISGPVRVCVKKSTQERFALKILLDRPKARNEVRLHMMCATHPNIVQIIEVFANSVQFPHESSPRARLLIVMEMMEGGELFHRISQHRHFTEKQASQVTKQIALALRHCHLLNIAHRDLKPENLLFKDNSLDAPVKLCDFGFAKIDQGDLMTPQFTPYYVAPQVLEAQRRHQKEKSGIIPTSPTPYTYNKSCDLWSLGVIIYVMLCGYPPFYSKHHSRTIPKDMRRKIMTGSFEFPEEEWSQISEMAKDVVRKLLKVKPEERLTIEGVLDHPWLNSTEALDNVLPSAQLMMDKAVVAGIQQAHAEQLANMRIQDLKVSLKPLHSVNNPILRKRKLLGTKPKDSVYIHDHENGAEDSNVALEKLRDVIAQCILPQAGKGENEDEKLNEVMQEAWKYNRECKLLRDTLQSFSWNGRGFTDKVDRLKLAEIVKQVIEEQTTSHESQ
# [8] = molecular target: Proto-oncogene tyrosine-protein kinase Src (Homo sapiens) (UniProt P12931); assay: Inhibition of human full length SRC expressed in baculovirus assessed as substrate phosphorylation using fluorescence-labelled peptides as substrate at […] after 90 mins by microfluidic peptide phosphorylation assay
# [9] = molecular target: T3, Serine/threonine-protein kinase Sgk2 (Homo sapiens) (UniProt Q9HBY8); assay: Inhibition of human full length SGK2 expressed in baculovirus assessed as substrate phosphorylation using fluorescence-labelled peptides as substrate at 8 uM after 90 mins by microfluidic peptide phosphorylation assay
# T3 sequence (whole entry): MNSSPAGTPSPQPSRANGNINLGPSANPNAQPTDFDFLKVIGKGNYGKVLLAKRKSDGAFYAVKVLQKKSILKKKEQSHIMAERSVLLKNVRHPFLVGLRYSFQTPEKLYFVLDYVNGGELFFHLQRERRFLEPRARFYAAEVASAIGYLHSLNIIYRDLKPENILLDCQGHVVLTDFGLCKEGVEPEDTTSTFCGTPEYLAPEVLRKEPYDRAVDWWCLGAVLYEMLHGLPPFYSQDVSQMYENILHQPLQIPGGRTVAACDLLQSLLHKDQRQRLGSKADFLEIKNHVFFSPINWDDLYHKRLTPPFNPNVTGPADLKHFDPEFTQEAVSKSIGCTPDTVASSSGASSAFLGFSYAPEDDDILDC
# Sequence of Proto-oncogene tyrosine-protein kinase Src (Homo sapiens) (P12931 2-536 limits assumed): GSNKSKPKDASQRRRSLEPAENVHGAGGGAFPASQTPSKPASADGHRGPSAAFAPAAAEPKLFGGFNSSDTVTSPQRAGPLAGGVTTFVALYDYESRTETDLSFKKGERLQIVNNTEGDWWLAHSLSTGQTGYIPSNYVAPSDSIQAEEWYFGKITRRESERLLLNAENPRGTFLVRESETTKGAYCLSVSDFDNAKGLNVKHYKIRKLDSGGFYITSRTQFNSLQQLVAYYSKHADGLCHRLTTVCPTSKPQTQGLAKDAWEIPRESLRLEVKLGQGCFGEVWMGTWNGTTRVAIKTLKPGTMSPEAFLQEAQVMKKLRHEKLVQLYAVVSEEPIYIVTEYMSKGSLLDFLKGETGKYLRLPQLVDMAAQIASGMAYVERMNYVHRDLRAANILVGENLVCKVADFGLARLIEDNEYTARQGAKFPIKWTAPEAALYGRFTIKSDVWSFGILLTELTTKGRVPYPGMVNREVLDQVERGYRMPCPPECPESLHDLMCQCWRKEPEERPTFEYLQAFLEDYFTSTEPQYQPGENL
# Sequence of Ribosomal protein S6 kinase alpha-2 (Homo sapiens) (Q15349 whole entry, the tested form may be a part): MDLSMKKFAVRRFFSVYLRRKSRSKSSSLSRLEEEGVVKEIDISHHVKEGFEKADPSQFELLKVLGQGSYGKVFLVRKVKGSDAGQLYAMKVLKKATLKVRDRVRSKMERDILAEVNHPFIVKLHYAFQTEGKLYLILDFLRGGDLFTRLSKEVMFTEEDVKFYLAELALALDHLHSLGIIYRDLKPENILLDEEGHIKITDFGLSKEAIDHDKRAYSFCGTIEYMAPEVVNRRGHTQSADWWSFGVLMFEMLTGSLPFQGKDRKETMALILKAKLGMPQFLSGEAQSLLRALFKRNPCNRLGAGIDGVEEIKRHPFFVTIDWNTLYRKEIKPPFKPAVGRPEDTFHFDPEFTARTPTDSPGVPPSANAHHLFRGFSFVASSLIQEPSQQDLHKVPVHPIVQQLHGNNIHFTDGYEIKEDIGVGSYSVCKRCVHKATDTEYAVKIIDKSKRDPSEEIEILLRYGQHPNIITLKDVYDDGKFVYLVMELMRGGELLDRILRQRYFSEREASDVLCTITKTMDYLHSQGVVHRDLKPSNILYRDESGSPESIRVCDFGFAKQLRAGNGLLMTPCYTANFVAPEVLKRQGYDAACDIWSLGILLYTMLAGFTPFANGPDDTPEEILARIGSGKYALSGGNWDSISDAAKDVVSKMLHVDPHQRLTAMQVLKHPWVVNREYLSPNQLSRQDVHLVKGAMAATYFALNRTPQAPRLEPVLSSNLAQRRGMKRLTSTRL
# Sequence of Ribosomal protein S6 kinase alpha-5 (Homo sapiens) (O75582 whole entry, looked up, the tested form may be a part): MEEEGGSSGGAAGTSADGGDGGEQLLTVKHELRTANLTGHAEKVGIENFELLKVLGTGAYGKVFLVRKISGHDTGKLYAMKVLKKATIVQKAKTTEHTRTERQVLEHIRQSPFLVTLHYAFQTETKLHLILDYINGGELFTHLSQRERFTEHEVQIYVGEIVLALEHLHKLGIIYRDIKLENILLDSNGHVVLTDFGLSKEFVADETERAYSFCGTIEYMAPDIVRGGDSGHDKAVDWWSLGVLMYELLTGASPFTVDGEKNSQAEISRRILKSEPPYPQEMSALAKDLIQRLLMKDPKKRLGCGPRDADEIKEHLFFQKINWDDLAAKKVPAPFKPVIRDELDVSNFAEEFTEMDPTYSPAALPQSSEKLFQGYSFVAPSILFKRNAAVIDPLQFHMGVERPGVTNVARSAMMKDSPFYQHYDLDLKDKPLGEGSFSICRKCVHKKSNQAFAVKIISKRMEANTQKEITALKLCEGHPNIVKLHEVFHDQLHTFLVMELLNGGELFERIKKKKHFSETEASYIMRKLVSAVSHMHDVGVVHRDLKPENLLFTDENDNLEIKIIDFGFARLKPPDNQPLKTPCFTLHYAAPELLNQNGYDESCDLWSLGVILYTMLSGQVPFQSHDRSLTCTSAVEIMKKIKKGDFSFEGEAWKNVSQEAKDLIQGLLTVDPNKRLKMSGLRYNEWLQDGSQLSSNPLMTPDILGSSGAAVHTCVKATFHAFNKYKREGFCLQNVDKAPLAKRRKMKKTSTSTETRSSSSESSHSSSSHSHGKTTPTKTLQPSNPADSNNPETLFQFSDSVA
# Sequence of Fibroblast growth factor receptor 4 (Homo sapiens) (P22455 22-802 limits assumed): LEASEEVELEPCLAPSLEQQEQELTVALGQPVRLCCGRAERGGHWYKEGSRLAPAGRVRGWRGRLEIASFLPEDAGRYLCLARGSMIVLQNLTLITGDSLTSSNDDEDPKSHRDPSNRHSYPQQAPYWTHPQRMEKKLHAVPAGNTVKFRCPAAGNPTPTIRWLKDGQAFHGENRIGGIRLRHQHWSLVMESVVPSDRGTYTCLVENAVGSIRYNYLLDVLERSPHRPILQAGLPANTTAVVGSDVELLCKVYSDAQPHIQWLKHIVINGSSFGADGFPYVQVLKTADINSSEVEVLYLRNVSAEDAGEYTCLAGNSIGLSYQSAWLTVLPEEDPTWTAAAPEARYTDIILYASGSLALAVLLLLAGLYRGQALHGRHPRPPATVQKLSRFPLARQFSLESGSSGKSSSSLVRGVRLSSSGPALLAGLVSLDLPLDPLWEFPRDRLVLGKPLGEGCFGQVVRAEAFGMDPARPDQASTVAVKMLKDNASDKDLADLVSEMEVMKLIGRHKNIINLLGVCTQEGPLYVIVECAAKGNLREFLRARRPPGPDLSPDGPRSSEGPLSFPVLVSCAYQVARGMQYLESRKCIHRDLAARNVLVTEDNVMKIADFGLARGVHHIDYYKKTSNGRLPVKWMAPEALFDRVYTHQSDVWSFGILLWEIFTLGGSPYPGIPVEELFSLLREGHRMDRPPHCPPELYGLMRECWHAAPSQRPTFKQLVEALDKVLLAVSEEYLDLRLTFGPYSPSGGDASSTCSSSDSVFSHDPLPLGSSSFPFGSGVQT
structure (smiles),measurement,setting,value
NC1(Cc2ccc(Cl)cc2)CCN(c2ncnc3[nH]ccc23)CC1,inhibition,[1],5.5%
same,inhibition,[2],0%
CNCc1ccc(-c2ncnc3[nH]cnc23)cc1,inhibition,[3],81%
same,inhibition,[4],0%
c1nc(N2CCOCC2)c2nc[nH]c2n1,inhibition,[5],70%
NCC1CN(c2ncnc3[nH]c4cnccc4c23)CCO1 (centres undefined),inhibition,[6],0%
same,inhibition,[7],0%
COC(=O)c1cnc(Nc2cnc(C#N)cn2)cc1NCC1CCNCC1,inhibition,[8],7.5%
NCC1CCN(c2ncnc3[nH]ccc23)CC1,inhibition,[9],69%
